# Measurements taken from US7470703B1 (priority 2004, dated 2008).
# Like-named read-outs stand apart in the source and are kept apart here. Marks after values point to notes of the source that are not given here.
# Columns and labels:
# human α2B-AR = biological target: T1, human α2B-AR (Homo sapiens, UniProt P18089); assay: Radioligand binding ([3H]rauwolscine) in CHO cells expressing human α2B-AR
# T1 construct: expressed in transfected cells
# T1 sequence (P18089 1-450): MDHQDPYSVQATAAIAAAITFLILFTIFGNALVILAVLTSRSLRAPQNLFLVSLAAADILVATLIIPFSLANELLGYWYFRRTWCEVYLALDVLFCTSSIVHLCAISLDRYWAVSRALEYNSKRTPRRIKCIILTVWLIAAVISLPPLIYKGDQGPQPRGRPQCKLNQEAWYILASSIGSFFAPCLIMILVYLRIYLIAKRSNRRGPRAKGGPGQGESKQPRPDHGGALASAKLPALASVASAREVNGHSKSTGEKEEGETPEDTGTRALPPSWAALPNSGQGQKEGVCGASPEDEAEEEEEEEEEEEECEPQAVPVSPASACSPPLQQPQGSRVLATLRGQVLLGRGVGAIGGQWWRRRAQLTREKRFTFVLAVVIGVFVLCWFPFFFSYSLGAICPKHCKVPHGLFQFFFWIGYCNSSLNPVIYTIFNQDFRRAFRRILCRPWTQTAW
# Procedure: (§1) Radioligand binding studies were conducted in CHO cells expressing homogeneous populations of α2A-, α2B- and α2C-ARs. Similar studies were performed in HEK293 cells expressing homogeneous populations of α1A-, α1B- and α1D-ARs. Briefly, CHO cells were harvested using Ham's F-12 media following trypsinization while HEK293 cells were detached by simple scraping. The cell suspension was centrifuged and the pellet re-suspended in Tris-EDTA buffer, pH 7.4. […] The assays were conducted in a final volume of 2 ml. Non-specific binding was determined in the presence of 10 μM phentolamine. The percentage of specific binding was determined by dividing the difference between the total bound (dpm) and nonspecific bound (dpm) by the total bound (dpm). […] Inhibition of specific binding by the competitors was determined using varying concentrations of the analogs. Incubations were terminated at 60 minutes by rapid filtration over Whatman GF/C glass fiber filters (Maidstone, UK) using a cell harvester (Brandel Inc., Gaithersburg, Md.). The filter discs were washed three times with Tris-EDTA buffer, pH 7.4, at 4° C. The radioactivity was quantified by using a Packard TRI-CARB 2900 TR Liquid Scintillation Analyzer (Packard Instrument Company, CT, USA) and data analyzed using GraphPad Prism (GraphPad Software, San Diego, Calif., USA).
# (§2) Scatchard analyses were carried out using varying concentrations of selected radioligands to determine their affinities (KD) and maximal binding characteristics (Bmax). […] The total and nonspecific binding for each concentration was determined in triplicate. The specific binding, at each concentration of the radioligand, was established and plotted as bound ligand versus bound/free ligand and the corresponding KD and Bmax values calculated on each human α-AR subtype. Data are expressed as the mean±S.E.M. of n=6-9 experiments.
# (§3) Individual pKi values are used to determine whether there are significant differences among means of the analogs on the three α2-AR subtypes. […] The final data are presented as mean±SEM of n=4 or more experiments.
# (§4) Ki and IC50 values were calculated as described above.
# human α2A-AR [1] = biological target: T2, human α2A-AR (Homo sapiens, UniProt P08913); assay: Radioligand binding ([3H]rauwolscine) in CHO cells expressing human α2A-AR; parameters: expressed in transfected cells
# T2 sequence (P08913 1-465): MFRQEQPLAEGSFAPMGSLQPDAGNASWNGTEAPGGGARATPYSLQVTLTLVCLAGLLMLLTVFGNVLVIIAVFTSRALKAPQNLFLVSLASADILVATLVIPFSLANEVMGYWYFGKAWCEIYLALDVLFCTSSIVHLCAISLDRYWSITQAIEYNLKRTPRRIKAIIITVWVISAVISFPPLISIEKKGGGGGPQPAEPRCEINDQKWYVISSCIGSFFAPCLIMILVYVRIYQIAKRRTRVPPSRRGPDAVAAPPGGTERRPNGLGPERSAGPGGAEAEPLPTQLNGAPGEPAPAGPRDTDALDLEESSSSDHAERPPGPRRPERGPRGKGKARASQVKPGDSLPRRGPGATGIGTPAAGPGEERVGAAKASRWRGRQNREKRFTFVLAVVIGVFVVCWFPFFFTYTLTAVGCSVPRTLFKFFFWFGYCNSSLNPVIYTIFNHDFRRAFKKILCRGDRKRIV
# Procedure: as §1, §2, §3, §4
# human α2C-AR [2] = biological target: T3, human α2C-AR (Homo sapiens, UniProt P18825); assay: Radioligand binding ([3H]rauwolscine) in CHO cells expressing human α2C-AR; parameters: expressed in transfected cells; details: for selectivity in binding to the α2C- versus the α2A-AR / selectivity in binding to the α2C- versus the α2B-AR: from binding affinities; for binding affinity for the α2C-AR greater than on the α1-AR subtypes: comparing Tables 1 and 3
# T3 sequence (P18825 1-462): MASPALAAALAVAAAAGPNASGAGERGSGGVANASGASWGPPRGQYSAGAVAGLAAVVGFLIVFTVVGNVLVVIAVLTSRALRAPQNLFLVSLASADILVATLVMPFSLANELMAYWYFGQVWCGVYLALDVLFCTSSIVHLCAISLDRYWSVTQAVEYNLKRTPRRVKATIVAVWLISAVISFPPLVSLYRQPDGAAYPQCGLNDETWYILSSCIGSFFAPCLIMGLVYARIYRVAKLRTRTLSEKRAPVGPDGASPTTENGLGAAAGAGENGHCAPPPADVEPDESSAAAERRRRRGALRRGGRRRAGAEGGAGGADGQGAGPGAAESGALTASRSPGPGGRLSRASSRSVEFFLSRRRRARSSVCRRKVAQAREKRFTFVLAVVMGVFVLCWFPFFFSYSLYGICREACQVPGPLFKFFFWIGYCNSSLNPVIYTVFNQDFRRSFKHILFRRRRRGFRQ
# Procedure: as §1, §2, §3, §4
# human α2A-AR [3] = biological target: T2, human α2A-AR; assay: cell-based
# Procedure: (§5) The reporter gene assays were conducted in CHO cells expressing the human α2A- and α2C-AR subtype. The cells were grown to confluence, upon which they were isolated and electroporated in the presence of the plasmid. […] Cells were transiently transfected with the 6 CRE-LUC plasmid (5 μg/100 μl of cell suspension) using electroporation at 150 V, 70 ms, single pulse. Transfected cells were plated into a 96-well microplate at a density of approximately 50,000 cells per well and allowed to grow for 20 hours.
# (§6) The assays with both α2A- and α2C-ARs were conducted using the non-subtype selective α2-AR agonist, medetomidine, to block the cAMP changes induced by the adenyl cyclase activator, forskolin. […] Basal values (solvent control) were subtracted from the forskolin values and the resulting forskolin response was used as 100%. Similarly, basal values were subtracted from all other values obtained with ligands, and the data expressed as a percentage luciferase response relative to that of forskolin alone.
# (§7) The agonist ligand, medetomidine, was added directly to the medium 20 minutes prior to the addition of forskolin and then allowed to incubate for 4 hours. […] These compounds were added 20 minutes prior to the addition of medetomidine.
# human α2C-AR [4] = biological target: T3, human α2C-AR; parameters: expressed in transfected cells; details: literature; cited from earlier work
# human α2C-AR [5] = biological target: T3, human α2C-AR; assay: cell-based
# Procedure: as §5, §6, §7
# mouse cremaster muscle [6] = assay: Ex vivo mouse cremaster muscle vasoconstriction model; details: for EC50: Mus musculus, read-out: EC50 (vasoconstriction concentration-response)
# mouse cremaster muscle [7] = assay: In vivo mouse cremaster muscle vessel diameter; details: intravenous 2 mg/kg, 37° C., n=6
# Excerpt: It is expected that this model also adequately represent the vasodilation in humans.
# [8] = CHO cells, [3H]rauwolscine competition
# [9] = CHO, read-out: inhibition of forskolin-induced cAMP response (luciferase)
compound,measurement,setting,value
"O=C(O)[C@@H]1[C@H]2C[C@H]3c4[nH]c5ccccc5c4CCN3C[C@@H]2CC[C@@H]1O [Compound 2, Yohimbinic acid]",binding at the α2B-AR versus the α2A-AR,human α2B-AR,46 fold
same,decrease in binding potency at the α2B-AR as compared to yohimbine,human α2B-AR,2 fold
same,Ki,human α2B-AR; CHO cells,0.0134 µM
same,decrease in binding potency at the α2A-AR as compared to yohimbine,human α2A-AR [1],345 fold
same,Ki,human α2A-AR [1]; CHO cells,0.616 µM
same,decrease in binding potency at the α2C-AR as compared to yohimbine,human α2C-AR [2],20 fold
same,Ki,human α2C-AR [2]; CHO cells,0.0194 µM
same,selectivity in binding to the α2C- versus the α2A-AR,human α2C-AR [2],around 32 fold
same,selectivity in binding to the α2C- versus the α2B-AR,human α2C-AR [2],equipotent
yohimbine benzyl carbamate propyl amine [Compound 7],mean percent inhibition (of the medetomidine response),"human α2A-AR [3]; α2A-AR, test compound 0.1 μM, medetomidine 0.01 μM, forskolin 5 μM",54%
same,binding affinity for the α2C-AR greater than on the α1-AR subtypes,human α2C-AR [2],≥ 562 fold
O=C(NCCCNC(=O)C1C(O)CCC2CN3CCc4c([nH]c5ccccc45)C3CC21)C1C(O)CCC2CN3CCc4c([nH]c5ccccc45)C3CC21 (stereo not drawn) [Compound 3],Ki,human α2B-AR; CHO cells,0.602 µM
same,α2B pKi ± SEM,human α2B-AR; [8],6.22 ± 0.03
same,Ki,human α2A-AR [1]; CHO cells,0.158 µM
same,α2A pKi ± SEM,human α2A-AR [1]; [8],6.80 ± 0.02^a
same,Ki,human α2C-AR [2]; CHO cells,0.00891 µM
same,α2C pKi ± SEM,human α2C-AR [2]; [8],8.05 ± 0.04^b
same,selectivity in binding to the α2C- versus the α2A-AR,human α2C-AR [2],18 fold
same,selectivity in binding to the α2C- versus the α2B-AR,human α2C-AR [2],68 fold
same,selectivity in binding to the α2C- versus α2A-AR (Lalchandani et al. 2002),human α2C-AR [4],32 fold
same,selectivity in binding to the α2C- versus α2B-AR (Lalchandani et al. 2002),human α2C-AR [4],355 fold
[^3H]rauwolscine [[^3H]rauwolsine],Bmax α2A,"human α2A-AR [1]; saturation binding, CHO cells",8.20±0.71 pmoles/mg protein
same,Bmax α2C,"human α2C-AR [2]; saturation binding, CHO cells",1.20±0.13 pmoles/mg protein
Cc1cccc(C(C)c2cnc[nH]2)c1C (stereo not drawn) [medetomidine],inhibition at 0.01 µM,human α2A-AR [3]; [9],56%
same,"increase in cAMP levels, alone (in the absence of forskolin)","human α2A-AR [3]; α2A-AR, 10 μM",17%
same,inhibition at 1 µM,human α2C-AR [5]; [9],70%
same,"increase in cAMP levels, alone (in the absence of forskolin)","human α2C-AR [5]; α2C-AR, 1 μM",did not show an increase in cAMP levels
same,shift of the curve (to the left) at the lower temperature,mouse cremaster muscle [6]; 25° C. vs 37° C.,10 fold
same,EC50,mouse cremaster muscle [6]; 25° C.,0.00215 µM
same,EC50,mouse cremaster muscle [6]; 37° C.,0.0204 µM
"COC(=O)[C@@H]1[C@H]2C[C@H]3c4[nH]c5ccccc5c4CCN3C[C@@H]2CC[C@@H]1O [Compound 1, Yohimbine]",reversal of medetomidine induced vasoconstriction,"mouse cremaster muscle [6]; 30, 100, and 300 nM",reversed
same,increase in vessel diameter,mouse cremaster muscle [7],22.14±1.08%
same,binding affinity for the α2C-AR greater than on the α1-AR subtypes,human α2C-AR [2],at least 224 fold
